This is an account of results in patent publication US9968553B1, “Enalapril compositions” (Silvergate Pharmaceuticals, Inc., priority 2012, dated 2018).

The series is described as follows: Reconstitution studies in 150 mL Ora-Sweet SF syrup (visual inspection). The format is physicochemical. As to conditions: 150 mL Ora-Sweet SF sugar-free flavored syrup. As to the method: The scaled-up enalapril and mannitol powder compositions (Enalapril Powder Composition A and the like) were examined in reconstitution studies where 150 mL Ora-Sweet® SF sugar-free flavored syrup was to the powder compositions.
Reconstitution of Neat Enalapril Powder in Bottle: Due to the ‘clouding’ in the reconstitution as well as the uniformity issues in the scale-up studies of Enalapril Powder Composition A, neat enalapril, i.e., drug alone, without any excipients, was examined for scale-up bottle filling and subsequent reconstitution.

For the compound `CCOC(=O)[C@H](CCc1ccccc1)N[C@@H](C)C(=O)N1CCC[C@H]1C(=O)O` [neat enalapril, enalapril], the “Reconstitution, visual observation of dissolution” value was “did not dissolve”.
